Data taken from patent US20210393734A1, “THERAPEUTIC AGENT FOR ARTHRITIS” (OSAKA UNIVERSITY, priority 2018, published 2021).
Entries after “also recorded” stand apart in the source; their conditions may differ.

Columns and labels:
[1] = tested on: R3 cells (osteoclast precursor cells existing in an inflammatory synovial membrane); assay: Suppression of differentiation of R3 cells into osteoclasts (in vitro); format: cell-based, mouse; details: 10 ng/ml M-CSF, 100 ng/ml RANKL, 0.5, 1, or 2 μM thiostrepton, 96-well plate, FIG. 2
Text: FIG. 2 is figures showing the effect of thiostrepton on the osteoclast differentiation of R3s (in vitro). Photographs indicate that osteoclast differentiation is suppressed by thiostrepton administration (reds show osteoclasts, and greens show precursor cells).
A) CD45-positive cells of blood and a synovial membrane of a collagen-induced arthritis model mouse (CIA model) were selected by flow cytometry, and the cell fractions were identified with the fluorescence of CX3CR1-EGFP and Ly6C-APC. A CX3CR1lowLy6Chi fraction in blood was defined as R1, a CX3CR1lowLy6Chi fraction in an inflammatory synovial membrane was defined as R2, and a CX3CR1hiLy6Cint fraction was defined as R3 (FIG. 1A).

[2] = tested on: Collagen-induced arthritis (CIA) mice; assay: Effect in collagen-induced arthritis (CIA) model mouse (in vivo); design: species or system DBA-1/J mice; details: 20 mg/kg or 50 mg/kg intraperitoneally every other day from the twenty-first day, compared with the control group
Experimental: Collagen-induced arthritis (CIA) mice were divided into three groups, and 20 mg/kg or 50 mg/kg of thiostrepton or a base (contrast) was intraperitoneally administered every other day from the twenty-first day. Methods for producing and evaluating CIA mice are as follows.
Arthritis was caused using 8- to 10-week-old DBA-1/J mice. Chicken type II collagen was dissolved in a 0.05 M acetic acid solution and rotated at 4° C. all night to make a solution at a concentration of 4.0 mg/ml, and the solution was mixed with the same volume of Freund's complete adjuvant. On the first day, 100 μl of the emulsion was injected into the tail of each of the above-mentioned DBA-1/J mice for immunization, and the administration was repeated in the same way on the twenty-first day. The severity of arthritis was evaluated in accordance with a semi-quantitative score method which consists of an established 5-point scale. The scale is as follows: 0: no swelling, 1: slight swelling only in the heel or the tarsal bones, 2: slight swelling from the heel to the tarsal bones, 3: considerable swelling from the heel to the metatarsal articulation, and 4: severe swelling spreading over an area including the heel, the foot, and the toes. […]
Image analysis using micro-CT was performed. The osteoclastic score was determined with reference to previous study (refer to O'Brien, Arthritis Rheumatol. 2016).

[3] = tested on: CX3CR1-positive HLA-DRhi cells from synovial fluid and articulation tissue of a rheumatoid arthritis patient; assay: Osteoclast differentiation of CX3CR1-positive HLA-DRhi cells of a rheumatoid arthritis patient; format: cell-based; details: human RA patient cells, 50 ng/ml M-CSF, 100 ng/ml RANKL, 0.5 μM thiostrepton, 96-well plate; FIG. 5B
Experimental: The photographs indicate that the osteoclast differentiation is inhibited by thiostrepton administration.
When these cells were collected by flow cytometry and cultured on a 96-well plate with 50 ng/ml M-CSF, 100 ng/ml RANKL, and 0.5 μM thiostrepton added.

C=C(NC(=O)C(=C)NC(=O)c1csc(C2=N[C@@H]3c4csc(n4)[C@H]4NC(=O)c5csc(n5)[C@H]([C@](C)(O)[C@@H](C)O)NC(=O)[C@H]5CSC(=N5)/C(=C/C)NC(=O)[C@H]([C@@H](C)O)NC(=O)c5csc(n5)[C@]3(CC2)NC(=O)[C@H](C)NC(=O)C(=C)NC(=O)[C@H](C)NC(=O)[C@H]([C@@H](C)CC)N[C@@H]2C=Cc3c([C@H](C)O)cc(nc3[C@H]2O)C(=O)O[C@@H]4C)n1)C(N)=O [thiostrepton]
capability to differentiate into osteoclasts (number of nuclei contained in osteoclasts in one visual field) [1]: remarkably suppressed | arthritis score ([2]; FIG. 3A): decreased significantly | osteoclastic score imaged by micro-CT (erosion score) ([2]; FIG. 3B): decreased significantly | differentiation into osteoclasts (number of nuclei contained in osteoclasts in one visual field) [3]: inhibited; also recorded: significantly suppressed
